In publication PMC7395068, “The evolution of strategies to minimise the risk of human drug-induced liver injury (DILI) in drug discovery and development” (Archives of Toxicology, 2020):
Like-named read-outs stand apart in the source and are kept apart here.

Tests used:
[1] = Plasma free fraction (fu) and unbound Cmax (Cmax,u); assay type: in vitro ADME, human; settings: unbound plasma Cmax
Description: The prediction of DILI severity was evaluated further using the 3D combined HCI assays using plasma-free fraction. The majority of fu values were obtained from literature, when unavailable in-house prediction was utilised. Unbound plasma Cmax concentrations (Cmax,u) were derived by multiplying total plasma Cmax with the corresponding free fraction (fu) for each compound.

[2] = tested on: PHH spheroids; design: method as in Bell et al. 2016; settings: 48-h exposure; ref Bell et al. 2016; cited from earlier work
[3] = tested on: PHH liver spheroid; design: method as in Foster et al. 2019; settings: liver-chip of comparable sensitivity, ref Foster et al. 2019; cited from earlier work
[4] = cited from earlier work
[5] = tested on: HepG2 cells; settings: cited from earlier work
[6] = tested on: HepG2 cells; settings: cited from earlier work; remark: listed apart in the source
[7] = tested on: HepG2 cells; settings: cited from earlier work; remark: listed apart in the source
[8] = tested on: PHH spheroids; settings: cited from earlier work
[9] = read-out: Human plasma Cmax; total plasma Cmax.tot, median of 9 literature references; cited from earlier work
[10] = plasma free fraction; cited from earlier work
[11] = cited from earlier work; remark: listed apart in the source
[12] = phase I clinical trials; ref Manning and Swartz 1995; McKenzie et al. 1995; cited from earlier work
[13] = tested on: THLE-Null and THLE-3A4 cells; settings: In vitro Assay; ref Gustafsson 2014; cited from earlier work
[14] = tested on: rBsep; settings: In vitro Assay; ref Dawson 2012; cited from earlier work
[15] = tested on: hLiMTs; assay: Combined HCI (HCS) and cellular ATP 3D assay in hLiMTs
[16] = tested on: HepaRG spheroids; assay: Combined HCI (HCS) and cellular ATP 3D assay in HepaRG spheroids; settings: for AC50 / minimal effective concentration: Homo sapiens
[17] = tested on: rBsep; design: method as in Dawson 2012; settings: ref Dawson 2012, cited from earlier work
[18] = In vitro Assay, ref Persson 2013
[19] = Microtissue model structural based (HCI), combined HCS and ATP, MEC < 25 × Cmax.tot cut-off

O=c1[nH]c(=O)n([C@@H]2O[C@H](CO)[C@@H](O)[C@@H]2F)cc1I [fialuridine]
Human plasma Cmax,u [1]: 295 nM | toxicity in PHH spheroids [2]: no toxicity | detection in 3D microtissues [3]: detected | DILI severity category (Chen et al. [2016]) ([4]; LTKB DILIrank category, ref Chen et al. 2016): Most | DILI severity category (Chen 2016) ([4]; human DILI classification, LTKB DILIrank, ref Chen et al. 2016): Most | DILI severity category ([4]; human DILI severity, ref Chen et al.): Most | DILI +VE (5-8), DILI -VE (-4) ([4]; ref Chen 2016): +VE | DILI severity category ([4]; ref Chen 2016): vMost-DILI-Concern | Structural based (HCI) ([5]; In vitro Assay, ref O'Brien 2006): +VE | DILI in vitro assay prediction, O'Brien (2006) ([5]; Structural based (HCI), HepG2, ref O'Brien et al. 2006): +VE (lowest HCI endpoint IC50 (or in the absence of dose–response < 100 µM) < 30 × total human plasma exposure levels (Cmax.tot)) | Cluser analysis [6, 18]: -VE | Structural based (HCI) [6, 18]: +VE | DILI in vitro assay prediction, Persson (2013) ([6]; Structural based (HCI), HepG2, ref Persson et al. 2013): -VE | Structural based (HCI) ([7]; In vitro Assay, ref Tolosa 2012): +VE | DILI in vitro assay prediction, Tolosa (2012) ([7]; Structural based (HCI), HepG2, ref Tolosa et al. 2012): +VE | hLiMTs ATP <20 x Cmax ([8]; In vitro Assay, ref Vorrink 2018): +VE (IC20 < 20 × Cmax.tot cut-off) | DILI in vitro assay prediction, Vorrink (2018) ([8]; PHH spheroids, ATP, 14 days, IC20 < 20 × Cmax.tot, ref Vorrink et al. 2018): +VE (IC20 < 20 × Cmax.tot cut-off) | Cmax [9]: 820 nM | fu [10]: 0.360 | Assigned DILI category ([11]; Chen et al. 2016 or literature alignment, ref Chen et al. 2016): 3 | In vivo DILI ([11]; ref Dawson 2012): +VE | In vivo DILI ([11]; ref Gustafsson 2014): +VE | In vivo DILI ([11]; ref O'Brien 2006): +VE | In vivo DILI ([11]; ref Persson 2013): +VE | In vivo DILI ([11]; ref Tolosa 2012): +VE | In vivo DILI ([11]; ref Vorrink 2018): +VE | clinical liver finding [12]: fatal hepatotoxicity | THLE-Null [13]: -VE | THLE-Null/3A4 [13]: -VE | Inhibition of rBsep cutoff<1& cmax u>.2 [14]: -VE | Inhibition of rBsep cutoff<3 [14]: -VE | AC50 ([15]; Homo sapiens, read-out: ATP endpoint AC50): 6.3 µM | minimal effective concentration ([15]; Homo sapiens, read-out: ATP endpoint MEC): 0.932 µM | minimal effective concentration ([15]; Homo sapiens, read-out: HCS endpoint MEC): 6.54 µM | DILI prediction hLiMTs (HCS-MEC) [15, 19]: +VE (MEC < 25 × Cmax.tot cut-off) | hLiMTs <25x Avg Cmax ATP ([15]; hLiMTs, ATP endpoint, cut-off <25x Avg Cmax): +ve | hLiMTs <100x Avg Cmaxu ATP ([15]; hLiMTs, ATP endpoint, cut-off <100x Avg Cmaxu): +ve (<100x Avg Cmaxu) | hLiMTs <25x Avg Cmax HCS ([15]; hLiMTs, HCS endpoints, cut-off <25x Avg Cmax): +ve | hLiMTs <100x Avg Cmaxu HCS ([15]; hLiMTs, HCS endpoints, cut-off <100x Avg Cmaxu): +ve (<100x Avg Cmaxu) | hLiMTs <25x Avg Cmax All ([15]; hLiMTs, all endpoints (ATP and HCS), cut-off <25x Avg Cmax): +ve | hLiMTs Cmax max All ([15]; hLiMTs, all endpoints, Cmax max used): +ve | hLiMTs Cmax min All ([15]; hLiMTs, all endpoints, Cmax min used): +ve | hLiMTs <10 uM All ([15]; hLiMTs, all endpoints, cut-off <10 uM): +ve (<10 uM) | hLiMTs <100x Avg Cmaxu All ([15]; hLiMTs, all endpoints, cut-off <100x Avg Cmaxu): +ve (<100x Avg Cmaxu) | HepaRG <25x Avg Cmax ATP ([16]; HepaRG, ATP endpoint, cut-off <25x Avg Cmax): +ve | HepaRG <100x Avg Cmaxu ATP ([16]; HepaRG, ATP endpoint, cut-off <100x Avg Cmaxu): +ve (<100x Avg Cmaxu) | HepaRG <25x Avg Cmax HCS ([16]; HepaRG, HCS endpoints, cut-off <25x Avg Cmax): +ve | HepaRG <100x Avg Cmaxu HCS ([16]; HepaRG, HCS endpoints, cut-off <100x Avg Cmaxu): +ve (<100x Avg Cmaxu) | HepaRG <25x Avg Cmax All ([16]; HepaRG, all endpoints (ATP and HCS), cut-off <25x Avg Cmax): +ve | HepaRG Cmax max All ([16]; HepaRG, all endpoints, Cmax max used): +ve | HepaRG Cmax min All ([16]; HepaRG, all endpoints, Cmax min used): +ve | HepaRG <10 uM All ([16]; HepaRG, all endpoints, cut-off <10 uM): +ve (<10 uM) | HepaRG <100x Avg Cmaxu All ([16]; HepaRG, all endpoints, cut-off <100x Avg Cmaxu): +ve (<100x Avg Cmaxu) | AC50 ([16]; HepaRG, read-out: ATP endpoint AC50): 9.16 µM | minimal effective concentration ([16]; HepaRG, read-out: ATP endpoint MEC): 1.28 µM | AC50 ([16]; HepaRG, read-out: HCS endpoint AC50): 115 µM | minimal effective concentration ([16]; HepaRG, read-out: HCS endpoint MEC): 5.78 µM | DILI prediction HepaRG spheroids (HCS-MEC) [16, 19]: +VE (MEC < 25 × Cmax.tot cut-off)

CO[C@H]1/C=C/O[C@@]2(C)Oc3c(C)c(O)c4c(O)c(cc(O)c4c3C2=O)NC(=O)/C(C)=C\C=C\[C@H](C)[C@H](O)[C@@H](C)[C@@H](O)[C@@H](C)[C@H](OC(C)=O)[C@@H]1C [rifamycin SV]
Inhibition of rBsep cutoff<1& cmax u>.2 ([17]; cutoff<1& cmax u>.2): +VE | Inhibition of rBsep cutoff<3 ([17]; cutoff<3): +VE | In vivo DILI ([11]; assignment in Dawson 2012, ref Dawson 2012): +VE
